Experimental data as given in US20210214303A1, “SCORPION VENOM BENZOQUINONE DERIVATIVES AND USES THEREOF” (priority 2018, published 2021).
Values after ≈ are worked out from the molar mass of the structure shown. “Also recorded” adds a separate entry of the source.

What was measured:
[1] = tested on: Mycobacterium tuberculosis multi-drug resistant (MDR) strain; assay: microbe, parasite or virus in culture; type: cell-based
[2] = tested on: Mycobacterium tuberculosis Multi-Drug-Resistance (MDR) CIBIN99 strain; assay: experimental model of progressive pulmonary tuberculosis; parameters: species or system BALB/c mice; details: mouse, in vivo

SMILES | MIC [1] [µg/mL] | condition of infected mice / overall effect [2] | reduction of pneumonia (automated histomorphometry, lung surface affected by pneumonia) [2] [%] | tissue damage (pneumonia), histology [2]
COC1=CC(=O)C(SC)=C(SC)C1=O [blue 1,4 benzoquinone, 5-methoxy-2,3-bis(methylthio)cyclohexa-2,5-diene-1,4-dione] | 4 (≈ 17.4 µM) | effective in vivo; also recorded: improvement by not losing weight and not showing piloerection; also recorded: marked improvement in their condition | 50 | less pneumonia; also recorded: clear decrease in tissue damage; also recorded: twofold decrease
COC1=CC(=O)C(SC)=C(OC)C1=O [red 1,4 benzoquinone, 3,5-dimethoxy-2-(methylthio)cyclohexa-2,5-diene-1,4-dione] | > 160 | – | – | –
